From patent US20200002354A1, “HEXAHYDROPYRAZINOBENZ- OR -PYRIDO-OXAZEPINES CARRYING AN OXYGEN-CONTAINING SUBSTITUENT AND USE THEREOF IN THE TREATMENT OF 5-HT2C-DEPENDENT DISORDERS” (AbbVie Deutschland GmbH & Co. KG, priority 2015, published 2020) come the findings set out here.

The target of one data set is T1, 5-HT2C receptor (Homo sapiens, UniProt P28335).
T1 construct: host or cells: U2OS
The experiment in a line: Human 5-HT2C functional assay (beta-arrestin2 recruitment, U2OS_HTR2C_β-Arrestin cells). The note with it: for EC50: Potency (EC50 5-HT2C) in functional assay, agonism, read-out: EC50 5-HT2C; for Emax: relative efficacy vs maximal effect induced by 5-HT (defined as 100%). The format is cell-based. In a few lines: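 U2OS cells expressing human 5-HT2C with β-arrestin2 enzyme-fragment complementation; switched to 1% serum medium 24 h after plating, compounds added next day for 1.5 h. β-Galactosidase activity read by chemiluminescence; response expressed as percent of 10 μM 5-HT or maximal 5-HT effect (relative efficacy).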
(In general: Recruitment of arrestin is a read-out of receptor activation apart from second messengers.)

The target in the next data set is T2, human 5-HT2A receptor (Homo sapiens, UniProt P28223).
T2 construct: expressed in transfected cells; host or cells: CHO-K1
Put plainly: Human 5-HT2A functional assay (calcium mobilisation in CHO-K1 cells, FLIPR). The format is cell-based. Particulars: based on agonism: EC50 5-HT2A/EC50 5-HT2C. In a few lines:
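CHO-K1 cells stably expressing human 5-HT2A, serum-starved overnight and loaded with calcium dye plus 0.07% probenecid, were given compound (10^−10 to 10^−5 M) for agonism, then serotonin at 3×10^−8 M after 8 min for antagonism. FLIPR calcium responses were normalised to serotonin maximum, and EC50/IC50 came from four-parameter fits, with Kb via Cheng–Prusoff.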

The target of another data set is T3, human 5-HT2B receptor (Homo sapiens, UniProt P41595).
T3 construct: expressed in transfected cells; host or cells: CHO-FlpIn
The experiment in a line: Human 5-HT2B functional assay (calcium mobilisation in CHO-FlpIn cells, FLIPR). Format: cell-based. Particulars: based on agonism: EC50 5-HT2B/EC50 5-HT2C. In a few lines:
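CHO-FlpIn cells stably expressing human 5-HT2B, serum-starved 4 h and Ca5 dye-loaded, received compound (10^−10 to 10^−5 M) for agonism, then 10^−8 M serotonin after 8 min for antagonism; peak calcium read by FLIPR. Efficacy as % serotonin maximum; EC50/IC50 from four-parameter fits, Kb via Cheng–Prusoff.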
In general terms: Calcium flux is commonly read through the fluorescence of an indicator in the cells.

The nature of data set [1]: Metabolic stability in human liver microsomes, unbound intrinsic clearance. The note with it: liver microsomes, pH 7.4; unbound intrinsic clearance (human); Clint unbound = Cl int/fu mic; read-out: Cl int, mic unb. (h). The format is in vitro ADME. An outline of the steps: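 Compound at 0.5 μM incubated with human liver microsomes (0.25 mg/mL) in 0.05 M potassium phosphate pH 7.4 at 37° C, started with 1.0 mM NADPH; sampled 0–30 min, parent quantified by LC-MS/MS. First-order t1/2 gives CLint (uL/min/mg), scaled to L/h/kg; unbound CLint = CLint/fu mic.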
For orientation: Liver microsomes are vesicles of endoplasmic reticulum, rich in cytochrome P450 enzymes.

T2 sequence (P28223 whole entry): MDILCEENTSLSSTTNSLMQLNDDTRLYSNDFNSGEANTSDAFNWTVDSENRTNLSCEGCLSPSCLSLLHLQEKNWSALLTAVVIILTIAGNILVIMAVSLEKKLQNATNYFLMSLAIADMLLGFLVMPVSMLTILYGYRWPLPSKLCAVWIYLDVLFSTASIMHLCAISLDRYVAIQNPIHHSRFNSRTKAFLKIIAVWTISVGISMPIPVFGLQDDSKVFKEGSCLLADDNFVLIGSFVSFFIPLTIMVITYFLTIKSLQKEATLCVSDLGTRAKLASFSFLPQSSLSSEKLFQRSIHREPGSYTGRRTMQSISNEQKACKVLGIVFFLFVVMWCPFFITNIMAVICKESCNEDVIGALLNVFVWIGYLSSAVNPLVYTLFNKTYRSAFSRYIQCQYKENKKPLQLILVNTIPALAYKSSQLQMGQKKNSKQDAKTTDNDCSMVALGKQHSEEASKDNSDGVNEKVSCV
T1 sequence (P28335 33-458): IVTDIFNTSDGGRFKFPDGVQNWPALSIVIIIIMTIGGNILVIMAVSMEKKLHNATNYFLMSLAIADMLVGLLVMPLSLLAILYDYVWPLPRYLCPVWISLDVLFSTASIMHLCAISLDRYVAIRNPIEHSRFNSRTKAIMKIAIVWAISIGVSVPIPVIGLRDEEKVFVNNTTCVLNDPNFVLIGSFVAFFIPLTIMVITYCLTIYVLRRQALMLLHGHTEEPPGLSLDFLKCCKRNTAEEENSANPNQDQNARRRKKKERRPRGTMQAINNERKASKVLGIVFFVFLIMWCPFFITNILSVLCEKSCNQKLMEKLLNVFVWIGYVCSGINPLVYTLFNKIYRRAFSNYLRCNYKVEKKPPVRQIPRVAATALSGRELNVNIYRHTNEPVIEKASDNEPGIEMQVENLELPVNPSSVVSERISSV
T1 sequence (P32121 whole entry partner): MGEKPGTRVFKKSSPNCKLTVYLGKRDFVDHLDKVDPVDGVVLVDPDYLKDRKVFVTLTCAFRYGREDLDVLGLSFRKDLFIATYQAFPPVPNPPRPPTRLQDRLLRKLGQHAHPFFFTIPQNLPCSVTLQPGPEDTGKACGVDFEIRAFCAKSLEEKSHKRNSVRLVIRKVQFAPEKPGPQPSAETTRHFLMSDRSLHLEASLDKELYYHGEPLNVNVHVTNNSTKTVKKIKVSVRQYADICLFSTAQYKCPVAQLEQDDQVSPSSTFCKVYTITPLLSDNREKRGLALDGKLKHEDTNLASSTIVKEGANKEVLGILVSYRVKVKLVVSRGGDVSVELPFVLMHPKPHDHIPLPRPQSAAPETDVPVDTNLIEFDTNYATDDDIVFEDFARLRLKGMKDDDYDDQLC
T3 sequence (P41595 whole entry): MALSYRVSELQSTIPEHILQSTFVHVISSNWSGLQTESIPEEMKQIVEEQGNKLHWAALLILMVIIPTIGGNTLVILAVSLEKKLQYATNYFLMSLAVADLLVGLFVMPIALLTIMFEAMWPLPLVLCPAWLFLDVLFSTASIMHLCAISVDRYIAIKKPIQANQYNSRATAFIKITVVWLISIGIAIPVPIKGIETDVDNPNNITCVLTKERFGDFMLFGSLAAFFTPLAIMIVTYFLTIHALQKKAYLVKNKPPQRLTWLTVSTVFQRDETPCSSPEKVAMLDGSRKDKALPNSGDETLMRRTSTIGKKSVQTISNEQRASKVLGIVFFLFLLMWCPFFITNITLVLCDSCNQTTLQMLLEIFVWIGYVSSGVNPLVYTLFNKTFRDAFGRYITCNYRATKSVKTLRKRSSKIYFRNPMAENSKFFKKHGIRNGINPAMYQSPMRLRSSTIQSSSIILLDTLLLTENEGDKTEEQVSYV

Turning to `COC[C@@H]1C[C@@H]2CNCCN2c2c(F)c(F)c(OC)c(Cl)c2O1.Cl` [Example 53, (4aR,6S)-8-Chloro-10,11-difluoro-9-methoxy-6-(methoxymethyl)-2,3,4,4a,5,6-hexahydro-1H-pyrazino[2,1-d][1,5]benzoxazepine hydrochloride], on 5-HT2C receptor, the EC50 lay in the range of 20 to 200 nM and the maximal effect (Emax) lay within 50 to 70%. Further, on human 5-HT2A receptor, the “Selectivity over 5-HT2A” value was “+++ (>100)”. The “Selectivity over 5-HT2B” value on human 5-HT2B receptor is “+++ (>100)”. Also, in data set [1], the CLint scaled at 0.5 μM was in the range of 83.3 to 833 mL/min/kg.

As to `COC[C@@H]1C[C@@H]2CNCCN2c2c(F)cccc2O1.Cl` [Example 54, (4aR,6S)-11-Fluoro-6-(methoxymethyl)-2,3,4,4a,5,6-hexahydro-1H-pyrazino[2,1-d][1,5]benzoxazepine hydrochloride], at 5-HT2C receptor, the EC50 was 200 to 1000 nM and the Emax was in the range of 30 to 50%. At human 5-HT2A receptor, the “Selectivity over 5-HT2A” value is “+ (from 10 to 30)”. For the same molecule, the “Selectivity over 5-HT2B” value at human 5-HT2B receptor is on record as “+ (from 10 to 30)”. Also, the CLint scaled at 0.5 μM in data set [1] is below 83.3 mL/min/kg.

For the molecule `COC[C@@H]1C[C@@H]2CNCCN2c2c(F)c(F)cc(C(F)(F)F)c2O1.Cl` [Example 56, (4aR,6S)-10,11-Difluoro-6-(methoxymethyl)-8-(trifluoromethyl)-2,3,4,4a,5,6-hexahydro-1H-benzo[b]pyrazino[1,2-d][1,4]oxazepine hydrochloride], on 5-HT2C receptor, the 50% effective concentration (EC50) is 20 to 200 nM and the Emax is above 70%. For the same molecule, the “Selectivity over 5-HT2A” value on human 5-HT2A receptor is given as “+++ (>100)”. The “Selectivity over 5-HT2B” value on human 5-HT2B receptor is “+++ (>100)”. Moreover, the CLint scaled at 0.5 μM in data set [1] was below 83.3 mL/min/kg.

For orientation: EC50 means the concentration needed to bring the measured effect to its halfway point. In general, Emax refers to the maximal effect, on the per cent scale that the assay sets.
